Measurements reported in patent publication US20030027286A1, “Bacterial promoters and methods of use” (priority 2000, published 2003).

How the values were obtained:
[1] = tested on: Staphylococcus aureus cells expressing antisense to the β subunit of gyrase; assay: Antibiotic IC50 plus/minus xylose in Staphylococcus aureus expressing antisense to gyrase β subunit; type: cell-based; conditions: antisense to gyrase β subunit under Xyl-T5; 12 mM vs 0 mM xylose; FIG. 15
Protocol: Sensitized cells were also used to identify the pathway in which a gene required for proliferation of Staphylococcus aureus lies. Antibiotics of various chemical classes and modes of action were purchased from chemical suppliers, for example Sigma Chemicals (St. Louis, Mo.). Stock solutions were prepared by dissolving each antibiotic in an appropriate aqueous solution based on information provided by the manufacturer. The final working solution of each antibiotic contained no more than 0.2% (w/v) of any organic solvent.
To determine its potency against a bacterial strain containing an antisense nucleic acid complementary to the sequence encoding the Beta (>) subunit of gyrase (which is required for proliferation) under the control of the Xyl-T5 fusion promoter, each antibiotic was serially diluted two or three fold in growth medium supplemented with the appropriate antibiotic for maintenance of the anti-sense construct. At least ten dilutions were prepared for each antibiotic.
Aliquots (25 μL) of each dilution were transferred to discrete wells of a 384-well microplate (the assay plate) using a multi-channel pipette. Quadruplicate wells were used for each dilution of an antibiotic under each treatment condition (plus and minus inducer). Each assay plate retained twenty wells for cell growth controls (growth media replacing antibiotic), ten wells for each treatment (plus and minus inducer, in this example xylose). Half the assay plate contained induced cells (in this example Staphylococcus aureus cells) and appropriate concentrations of inducer (in this example xylose) to maintain the state of induction while the other half of the assay plate contained non-induced cells in the absence of inducer.
Cells of a bacterial clone containing a construct in which expression of antisense complementary to the sequence encoding the β subunit of gyrase under the control of a xylose inducible promoter were grown into exponential growth (OD600 0.2 to 0.3) and then diluted 1:100 into fresh media containing either 12 mM or 0 mM inducer (xylose). These cultures were incubated at 37° C. for 2.5 hr. The presence of inducer (xylose) in the medium initiates and maintains production of antisense RNA from the antisense construct, in this case. After a 2.5 hr incubation, induced and non-induced cells were respectively diluted into an assay medium containing an appropriate concentration of the antibiotic for the maintenance of the anti-sense construct. In addition, medium used to dilute induced cells was supplemented with 24 mM xylose so that addition to the assay plate would result in a final xylose concentration of 12 mM. The cells were diluted to a final OD600 value of 0.0004.
Induced and non-induced cell suspensions were dispensed (25 :l/well) into the appropriate wells of the assay plate as discussed previously. The plate was then loaded into a plate reader and incubated at constant temperature while cell growth was monitored in each well by the measurement of light scattering at 595 nm. Growth was monitored every 5 minutes until the cell culture attained a stationary growth phase. For each concentration of antibiotic, a percentage inhibition of growth was calculated at the time point corresponding to mid-exponential growth for the associated control wells (no antibiotic, plus or minus xylose). For each antibiotic and condition (plus or minus xylose), plots of percent inhibition versus Log of antibiotic concentration were generated and IC50s determined.

[2] = tested on: E. coli expressing antisense RNA; assay: Antibiotic sensitivity of E. coli sensitized by IPTG-induced antisense RNA; type: cell-based, Escherichia coli; conditions: for sensitivity to antibiotic of antisense-expressing clones: initial experiments
Source text: The effectiveness of the above cell-based assay was validated using constructs expressing antisense RNA to the proliferation required E. coli genes rplL, rplJ, and rplW encoding ribosomal proteins L7/L12, L10 and L23 respectively. These proteins are part of the protein synthesis apparatus of the cell and as such are required for proliferation. These constructs were used to test the effect of antisense expression on cell sensitivity to antibiotics known to bind to the ribosome and thereby inhibit protein synthesis. Constructs expressing antisense RNA to several other genes (elaD, visC, yohH, and atpE/B), the products of which are not involved in protein synthesis were used for comparison.
First, pLex5BA (Krause et al. 1997. J. Mol. Biol. 274: 365, the disclosure of which is incorporated herein by reference in its entirety) expression vectors containing antisense constructs to either rplW or to elaD were introduced into separate E. coli cell populations. Vector introduction is a technique well known to those of ordinary skill in the art. The expression vectors of this example contain IPTG inducible promoters that drive the expression of the antisense RNA in the presence of the inducer. However, those skilled in the art will appreciate that other inducible promoters may also be used. Suitable expression vectors are also well known in the art. The E. coli antisense clones to genes encoding ribosomal proteins L7/L12, L10 and L23 were used to test the effect of antisense expression on cell sensitivity to the antibiotics known to bind to these proteins. […]
The cell populations were exposed to a range of IPTG concentrations in liquid medium to obtain the growth inhibitory dose curve for each clone. First, seed cultures were grown to a particular turbidity that is measured by the optical density (OD) of the growth solution. […] The cells were grown for up to 15 hours and the extent of growth was determined by measuring the optical density of the cultures at 600 nm. […]

| Structure (SMILES) | potency in induced cells as compared to uninduced cells [1] | other results |
| --- | --- | --- |
| COc1cc(Cc2cnc(N)nc2N)cc(OC)c1OC [trimethoprim] | not significantly different |  |
| CN[C@H](CC(C)C)C(=O)N[C@H]1C(=O)N[C@@H](CC(N)=O)C(=O)N[C@H]2C(=O)N[C@H]3C(=O)N[C@H](C(=O)N[C@H](C(=O)O)c4cc(O)cc(O)c4-c4cc3ccc4O)[C@H](O)c3ccc(c(Cl)c3)Oc3cc2cc(c3O[C@@H]2O[C@H](CO)[C@@H](O)[C@H](O)[C@H]2O[C@H]2C[C@](C)(N)[C@H](O)[C@H](C)O2)Oc2ccc(cc2Cl)[C@H]1O [vancomycin] | not significantly different |  |
| CCC[C@@H]1C[C@@H](C(=O)N[C@@H]([C@H]2O[C@H](SC)[C@H](O)[C@@H](O)[C@H]2O)[C@@H](C)O)N(C)C1 [lincomycin] | not significantly different |  |
| CC(=O)O[C@H]1C[C@@]2(C)[C@@H](C[C@@H](O)[C@H]3[C@@]4(C)CC[C@@H](O)[C@@H](C)[C@@H]4CC[C@@]32C)/C1=C(\CCC=C(C)C)C(=O)O [fusidic acid] | not significantly different |  |
| CO/N=C(\C(=O)N[C@@H]1C(=O)N2C(C(=O)O)=C(COC(C)=O)CS[C@H]12)c1csc(N)n1 [cefotaxime] | not significantly different |  |
| NC[C@H]1O[C@H](O[C@H]2[C@H](O)[C@@H](O[C@H]3O[C@H](CO)[C@@H](O)[C@H](N)[C@H]3O)[C@H](N)C[C@@H]2N)[C@H](N)C[C@@H]1O [tobramycin] | not significantly different |  |
| CC[C@H]1OC(=O)[C@H](C)[C@@H](O[C@H]2C[C@@](C)(OC)[C@@H](O)[C@H](C)O2)[C@H](C)[C@@H](O[C@@H]2O[C@H](C)C[C@H](N(C)C)[C@H]2O)[C@](C)(O)C[C@@H](C)C(=O)[C@H](C)[C@@H](O)[C@]1(C)O [erythromycin] |  | sensitivity to antibiotic of antisense-expressing clones ([2]; clones antisense to non-protein synthesis genes elaD, atpB/E and visC): do not; sensitivity to antibiotic of antisense-expressing clones ([2]; clones antisense to protein synthesis genes (L7/L12 & L10, L7/L12 alone, L22, L18, rRNA, Elongation Factor G)): increased sensitivity |
| CO[C@@]1(NC(=O)Cc2cccs2)C(=O)N2C(C(=O)O)=C(COC(N)=O)CS[C@@H]21 [cefoxitin] | not significantly different |  |
| CCn1cc(C(=O)O)c(=O)c2ccc(C)nc21 [nalidixic acid] |  | sensitivity to antibiotic of antisense-induced cells ([2]; E. coli expressing antisense to rplL and rplJ (reduced L7/L12), IPTG): does not show increased sensitivity |
| CO[C@@H]1[C@@H](OC(N)=O)[C@@H](O)[C@H](Oc2ccc3c(O)c(NC(=O)c4ccc(O)c(CC=C(C)C)c4)c(=O)oc3c2C)OC1(C)C [novobiocin] | significantly different |  |
